A short description of the series: Admixture of ester to distilled water and amino acid solution (Vamin N), 5 days at +5°C. It is filed as physicochemical. As for the experimental part:
6 g of egg-yolk phospholipids were dissolved in 50 g of 5-methyl-3-oxo-hexanoic acid ethyl ester and 4-methyl-3-oxo-pentanoic acid ethyl ester respectively, while applying and stirring the system. When clear solutions had been obtained, 34 g of absolute alcohol (about 99%) were added, corresponding to the least quantity required for the solutions to remain stable in cold conditions without precipitation of phospholipids. These solutions were autoclaved at +117°C for 20 minutes. Aliquots of these solutions were taken (0.2; 1.0; 3.0 and 5% calculated on ethyl ester) and added respectively to distilled water and to an amino acid solution with a concentration of 7.18% and 9.4 g nitrogen/l (Vamin^R N). Controls were run, in which a pure product of 5-methyl-3-oxo-hexanoic acid ethyl ester and 4-methyl-3-oxo-pen tanoic acidethyl ester respectively were added to distilled water and amino acid solution respectively. All samples were shaken for 10 seconds in a shaking apparatus of the type Whirlimixer^R. The samples were then permitted to stand for 5 calender days in cold conditions (+5°C) and were read-off daily under a daylight lamp, observations being made as to the acceptable quality of the resultant emulsions (visually) or to ascertain the presence or absence of oil droplets on the surface of the emulsions, or separation thereof. […]

For `CCOC(=O)CC(=O)CC(C)C` [5-methyl-3-oxo-hexanoic acid ethyl ester], the “concentration to which the ester can be mixed (accepted samples)” value (free pure ester in amino acid solution (Vamin N)) is 0.2% and the “concentration to which the ester can be mixed (accepted samples)” value (free pure ester in distilled water) is 0.2%.

The values are drawn from patent EP0366632A1, “Alternative energy substrates” (priority 1988, dated 1990).
